These compounds were tested against T1, Axl (Homo sapiens, UniProt P30530) (assay: Phospho-Akt In-Cell Western Assay (inhibition of Axl activity after Axl-antibody cross-linking)). Conditions: Hela cells, phospho-Akt chemiluminescence normalized to relative cell number; compounds of formula (Ia), Table 1; read-out: IC50.
T1 construct: endogenous in cells; host or cells: HeLa cells
T1 sequence (P30530 26-894): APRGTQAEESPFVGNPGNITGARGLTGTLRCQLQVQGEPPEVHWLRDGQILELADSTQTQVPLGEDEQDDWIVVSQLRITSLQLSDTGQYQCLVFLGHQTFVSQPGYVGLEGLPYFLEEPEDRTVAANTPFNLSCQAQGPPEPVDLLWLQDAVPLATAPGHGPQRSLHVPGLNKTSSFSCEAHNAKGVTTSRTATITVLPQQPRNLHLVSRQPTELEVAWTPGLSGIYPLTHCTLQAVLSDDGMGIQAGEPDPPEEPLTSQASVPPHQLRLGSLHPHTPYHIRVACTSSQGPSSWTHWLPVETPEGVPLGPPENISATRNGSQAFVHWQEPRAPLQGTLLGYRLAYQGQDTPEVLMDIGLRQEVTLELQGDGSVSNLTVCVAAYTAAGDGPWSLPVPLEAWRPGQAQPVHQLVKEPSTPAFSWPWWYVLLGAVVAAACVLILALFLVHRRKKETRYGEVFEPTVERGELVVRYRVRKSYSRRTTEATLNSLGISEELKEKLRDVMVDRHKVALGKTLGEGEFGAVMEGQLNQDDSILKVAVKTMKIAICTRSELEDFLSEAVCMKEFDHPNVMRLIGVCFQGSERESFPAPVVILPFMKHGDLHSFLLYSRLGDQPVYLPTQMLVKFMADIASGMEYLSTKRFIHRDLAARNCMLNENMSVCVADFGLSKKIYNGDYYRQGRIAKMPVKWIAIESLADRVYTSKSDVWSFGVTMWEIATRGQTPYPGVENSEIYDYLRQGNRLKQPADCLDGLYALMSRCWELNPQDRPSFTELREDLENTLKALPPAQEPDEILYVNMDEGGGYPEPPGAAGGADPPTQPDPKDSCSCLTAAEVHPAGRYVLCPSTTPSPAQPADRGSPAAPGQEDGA
Assay type: cell-based
Summary of the method: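 Phospho-Akt was detected in formaldehyde-fixed cells by in-cell immunostaining with HRP chemiluminescence. Before fixation, HeLa cells kept 24 h in low-serum medium containing 500 ng/mL Axl/Fc received compound for 1 h at 37 °C, followed by 5-min Axl activation through antibody clustering.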

Row | Compound | IC50 [µM]
1 | Nc1nc(Nc2ccc(OCCN3CCCC3)c(F)c2)nn1-c1cc2c(nn1)-c1cc(F)ccc1CCC2 [Compound 54, 1-(6,7-dihydro-5H-10-fluorobenzo[6,7]cyclo-hepta[1,2-c]pyridazin-3-yl)-N^3-(3-fluoro-4-(2-(pyrrolidin-1-yl)ethoxy)phenyl)-1H-1,2,4-triazole-3,5-diamine] | < 1
2 | CN(C)CCNC(=O)c1ccc(Nc2nc(N)n(-c3cc4c(nn3)-c3ccccc3CCC4)n2)cc1 [Compound 19, 1-(6,7-dihydro-5H-benzo[6,7]cyclohepta[1,2-c]pyridazin-3-yl)-N^3-(4-((2-(dimethylamino)ethyl)-aminocarbonyl)phenyl)-1H-1,2,4-triazole-3,5-diamine] | 1 to 10
3 | CN1CC2CN(c3ccc(Nc4nc(N)n(-c5cc6c(nn5)-c5ccccc5CCC6)n4)cc3F)CC2C1 (stereo not shown) [Compound 66, 1-(6,7-dihydro-5H-benzo[6,7]cyclohepta[1,2-c]pyridazin-3-yl)-N^3-(3-fluoro-4-(5-methyloctahydro-pyrrolo[3,4-c]pyrrolyl)phenyl)-1H-1,2,4-triazole-3,5-diamine] | < 1
4 | CC1CN(c2ccc(Nc3nc(N)n(-c4cc5c(nn4)-c4ccccc4CCC5)n3)cc2)CC(C)N1 (stereo not shown) [Compound 17, 1-(6,7-dihydro-5H-benzo[6,7]cyclohepta[1,2-c]pyridazin-3-yl)-N^3-(4-(3,5-dimethylpiperazin-1-yl)phenyl)-1H-1,2,4-triazole-3,5-diamine] | < 1
5 | Nc1nc(Nc2ccc(OCCN3CCCC3)cc2)nn1-c1cc2c(nn1)-c1ccccc1CCC2 [Compound 1, 1-(6,7-dihydro-5H-benzo[6,7]cyclohepta[1,2-c]pyridazin-3-yl)-N^3-(4-(2-(pyrrolidin-1-yl)ethoxy)phenyl)-1H-1,2,4-triazole-3,5-diamine] | < 1
6 | Nc1nc(Nc2ccc(N3CC[C@H]4CCCC[C@@H]4C3)c(F)c2)nn1-c1cc2c(nn1)-c1ccccc1SCC2 [Compound 126, 1-(6,7-dihydro-5H-benzo[2,3]thiepino[4,5-c]pyridazin-3-yl)-N^3-(3-fluoro-4-((4aR,8aS)-decahydroisoquinolin-2-yl)phenyl)-1H-1,2,4-triazole-3,5-diamine] | > 20

Other lines, results leading:

Row | IC50 [µM] | Compound
7 | < 1 | Nc1nc(Nc2ccc(N3CCCN(C4CCCC4)CC3)nc2)nn1-c1cc2c(nn1)-c1ccccc1CCC2 [Compound 25, 1-(6,7-dihydro-5H-benzo[6,7]cyclohepta[1,2-c]pyridazin-3-yl)-N^3-(6-(4-cyclopentyl-1,4-diazepan-1-yl)pyridin-3-yl)-1H-1,2,4-triazole-3,5-diamine]
8 | < 1 | Nc1nc(Nc2ccc(N3CCN(C4CCCCC4)CC3)cc2)nn1-c1cc2c(nn1)-c1ccccc1CCC2 [Compound 3, N^3-(4-(4-cyclohexanylpiperazin-1-yl)phenyl)-1-(6,7-dihydro-5H-benzo[6,7]cyclohepta[1,2-c]pyridazin-3-yl)-1H-1,2,4-triazole-3,5-diamine]
9 | 1 to 10 | Nc1nc(Nc2ccc(N3CCC(N4CCCC4)CC3)cc2)nn1-c1cc2c(nn1)-c1ccccc1OCC2 [Compound 116, 1-(6,7-dihydro-5H-benzo[2,3]oxepino[4,5-c]pyridazin-3-yl)-N^3-(4-(4-pyrrolidin-1-ylpiperidinyl)phenyl)-1H-1,2,4-triazole-3,5-diamine]
10 | < 1 | Nc1nc(Nc2ccc(N3CCCC(N4CCCC4)C3)c(F)c2)nn1-c1cc2c(nn1)-c1ccccc1CCC2 (stereo not shown) [Compound 68, 1-(6,7-dihydro-5H-benzo[6,7]cyclohepta[1,2-c]pyridazin-3-yl)-N^3-(3-fluoro-4-(3-pyrrolidin-1-yl-piperidin-1-yl)phenyl)-1H-1,2,4-triazole-3,5-diamine]
11 | < 1 | CN1CCN(c2ccc(Nc3nc(N)n(-c4cc5c(nn4)-c4ccccc4CCC5)n3)cn2)CC1 [Compound 27, 1-(6,7-dihydro-5H-benzo[6,7]cyclohepta[1,2-c]pyridazin-3-yl)-N^3-(6-(4-methylpiperazin-1-yl)pyridin-3-yl)-1H-1,2,4-triazole-3,5-diamine]

Same assay, conditions: Hela cells, phospho-Akt chemiluminescence normalized to relative cell number; compounds of formula (Ib), Table 2; read-out: IC50

Row | IC50 [µM] | Compound
12 | 1 to 10 | CN1CCC(N2CCc3ccc(Nc4nc(N)nn4-c4cc5c(nn4)-c4ccccc4CCC5)cc3C2)CC1 [Compound 245, 1-(6,7-dihydro-5H-benzo[6,7]cyclohepta[1,2-c]pyridazin-3-yl)-N^5-(2-(1-methylpiperidin-4-yl)-1,2,3,4-tetrahydroisoquinolin-7-yl)-1H-1,2,4-triazole-3,5-diamine]

Same assay, conditions: inhibition of Axl activity; Table 1, compounds of formula (Ia); read-out: IC50

Row | Compound | IC50 [µM]
13 | Nc1nc(Nc2ccc3c(c2)CCC(NC2CCC2)CC3)nn1-c1cc2c(nn1)-c1ccccc1CCC2 (stereo not shown) [Compound 229, 1-(6,7-dihydro-5H-benzo[6,7]cyclohepta[1,2-c]pyridazin-3-yl)-N^3-(7-cyclobutylamino-6,7,8,9-tetrahydro-5H-benzo[7]annulene-2-yl)-1H-1,2,4-triazole-3,5-diamine] | < 1
14 | CN(C)[C@@H]1CCN(c2ccc(Nc3nc(N)n(-c4cc5c(nn4)-c4ccccc4CCC5)n3)cc2F)C1 [Compound 180, 1-(6,7-dihydro-5H-benzo[6,7]cyclohepta[1,2-c]pyridazin-3-yl)-N^3-(3-fluoro-4-(3-(3R)-dimethylaminopyrrolidin-1-yl)phenyl)-1H-1,2,4-triazole-3,5-diamine] | < 1
15 | CCN(CC)CCN(C)C1CCc2ccc(Nc3nc(N)n(-c4cc5c(nn4)-c4ccccc4CCC5)n3)cc2CC1 (stereo not shown) [Compound 231, 1-(6,7-dihydro-5H-benzo[6,7]cyclohepta[1,2-c]pyridazin-3-yl)-N^3-(7-(2-(diethylamino)ethyl)methyl-amino-6,7,8,9-tetrahydro-5H-benzo[7]annulene-2-yl)-1H-1,2,4-triazole-3,5-diamine] | < 1
16 | C[C@H]1CCCN1C1CCc2ccc(Nc3nc(N)n(-c4cc5c(nn4)-c4ccccc4CCC5)n3)cc2CC1 (stereo partly drawn) [Compound 218, 1-(6,7-dihydro-5H-benzo[6,7]cyclohepta[1,2-c]pyridazin-3-yl)-N^3-(7-(2-(S)-methylpyrrolidin-1-yl)-6,7,8,9-tetrahydro-5H-benzo[7]annulene-2-yl)-1H-1,2,4-triazole-3,5-diamine] | < 1
17 | CC1(C)COC2(CCCc3ncc(Nc4nc(N)n(-c5cc6c(nn5)-c5ccccc5CCC6)n4)cc3CC2)OC1 [Compound 247, 1-(6,7-dihydro-5H-benzo[6,7]cyclohepta[1,2-c]pyridazin-3-yl)-N^3-(5′,5′-dimethyl-6,8,9,10-tetrahydro-5H-spiro[cycloocta[b]pyridine-7,2′-[1,3]dioxane]-3-yl)-1H-1,2,4-triazole-3,5-diamine] | > 20

The next lines start with the values.

Row | IC50 [µM] | Compound
18 | < 1 | Nc1nc(Nc2cnc3c(c2)CCC(N2CCCC2)CC3)nn1-c1cc2c(nn1)-c1ccccc1CCC2 (stereo not shown) [Compound 152, 1-(6,7-dihydro-5H-benzo[6,7]cyclohepta[1,2-c]pyridazin-3-yl)-N^3-((7-pyrrolidin-1-yl)-6,7,8,9-tetrahydro-5H-cyclohepta[b]pyridine-3-yl)-1H-1,2,4-triazole-3,5-diamine]
19 | > 20 | Nc1nc(Nc2ccc(C3CCN(C4CC5CCC4C5)CC3)cc2)nn1-c1cc2c(nn1)-c1ccccc1CCC2 (stereo not shown) [Compound 211, 1-(6,7-dihydro-5H-benzo[6,7]cyclohepta[1,2-c]pyridazin-3-yl)-N^3-(4-(1-bicyclo[2.2.1]heptan-2-yl)-piperidin-4-ylphenyl)-1H-1,2,4-triazole-3,5-diamine]
20 | < 1 | Nc1nc(Nc2ccc(N3CCC(N4CCCC4)CC3)c(F)c2)nn1-c1cc2c(nn1)-c1ccccc1CCC2 [Compound 177, 1-(6,7-dihydro-5H-benzo[6,7]cyclohepta[1,2-c]pyridazin-3-yl)-N^3-(3-fluoro-4-(4-pyrrolidin-1-ylpiperidin-1-yl)phenyl)-1H-1,2,4-triazole-3,5-diamine]
21 | < 1 | CCN(CC)C1CCN(c2ccc(Nc3nc(N)n(-c4cc5c(nn4)-c4ccccc4CCC5)n3)cn2)C1 (stereo not shown) [Compound 133, 1-(6,7-dihydro-5H-benzo[6,7]cyclohepta[1,2-c]pyridazin-3-yl)-N^3-(6-(3-diethylaminopyrrolidin-1-yl)pyridin-3-yl)-1H-1,2,4-triazole-3,5-diamine]
22 | < 1 | Nc1nc(Nc2ccc(N3CCC(N4CCCC4)CC3)c(F)c2)nn1-c1cc2c(nn1)-c1ccc(Cl)cc1CCC2 [Compound 143, 1-(6,7-dihydro-9-chloro-5H-benzo[6,7]cyclohepta[1,2-c]pyridazin-3-yl)-N^3-(3-fluoro-4-(4-pyrrolidin-1-ylpiperidin-1-yl)phenyl)-1H-1,2,4-triazole-3,5-diamine]

From patent US7709482B2, “Polycyclic heteroaryl substituted triazoles useful as Axl inhibitors” (Rigel Pharmaceuticals, Inc., priority 2006, dated 2010)
